Assays:
Assay in all cases: relative viability (nuclei count vs DMSO), 5 days (fraction); higher = more cells survive
HCC-15 = tested on: HCC-15
Method in brief: (§1)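 Relative viability was taken as the ratio of nuclei in treated wells to nuclei in vehicle wells. Lung cancer cell lines in 1536-well plates received compounds by pin tool one day after seeding, either one drug alone or a fixed anchor-drug dose plus five library-drug doses (not always all listed) in √10 steps. Nuclei were counted on 4× images after 5 days of treatment, and values are medians of duplicate plates.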

NCI-H441 = tested on: NCI-H441
Method in brief: as §1

NCI-H358 = tested on: NCI-H358
Method in brief: as §1

NCI-H1975 = tested on: NCI-H1975
Method in brief: as §1

NCI-H1792 = tested on: NCI-H1792
Method in brief: as §1

NCI-H1666 = tested on: NCI-H1666
Method in brief: as §1

A-427 = tested on: A-427
Method in brief: as §1

COR-L23 = tested on: COR-L23
Method in brief: as §1

LK-2 = tested on: LK-2
Method in brief: as §1

EKVX = tested on: EKVX
Method in brief: as §1

BEN = tested on: BEN
Method in brief: as §1

NCI-H650 = tested on: NCI-H650
Method in brief: as §1

SK-MES-1 = tested on: SK-MES-1
Method in brief: as §1

HCC-44 = tested on: HCC-44
Method in brief: as §1

HCC-827 = tested on: HCC-827
Method in brief: as §1

NCI-H23 = tested on: NCI-H23
Method in brief: as §1

201T = tested on: 201T
Method in brief: as §1

NCI-H596 = tested on: NCI-H596
Method in brief: as §1

COR-L 105 = tested on: COR-L 105
Method in brief: as §1

NCI-H1437 = tested on: NCI-H1437
Method in brief: as §1

HARA = tested on: HARA
Method in brief: as §1

NCI-H838 = tested on: NCI-H838
Method in brief: as §1

NC(=O)Nc1cc(-c2cccc(F)c2)sc1C(=O)N[C@H]1CCCNC1 [AZD7762] + Cc1nc(NC(=O)N2CCC[C@H]2C(N)=O)sc1-c1ccnc(C(C)(C)C(F)(F)F)c1 [Alpelisib] (partner 2 µM)
relative viability (HCC-15; first compound 0.01 µM): 0.995 | relative viability (HCC-15; first compound 0.03162 µM): 0.945 | relative viability (HCC-15; first compound 0.1 µM): 0.983 | relative viability (HCC-15; first compound 0.3162 µM): 0.93 | relative viability (HCC-15; first compound 1 µM): 1.12 | relative viability (NCI-H441; first compound 0.01 µM): 1.17 | relative viability (NCI-H441; first compound 0.03162 µM): 0.831 | relative viability (NCI-H441; first compound 0.1 µM): 1.2 | relative viability (NCI-H441; first compound 0.3162 µM): 1.01 | relative viability (NCI-H441; first compound 1 µM): 1.09 | relative viability (NCI-H358; first compound 0.01 µM): 0.819 | relative viability (NCI-H358; first compound 0.03162 µM): 0.964 | relative viability (NCI-H358; first compound 0.1 µM): 0.837 | relative viability (NCI-H358; first compound 0.3162 µM): 0.629 | relative viability (NCI-H358; first compound 1 µM): 0.33 | relative viability (NCI-H1975; first compound 0.01 µM): 0.678 | relative viability (NCI-H1975; first compound 0.03162 µM): 0.585 | relative viability (NCI-H1975; first compound 0.1 µM): 0.579 | relative viability (NCI-H1975; first compound 0.3162 µM): 0.436 | relative viability (NCI-H1975; first compound 1 µM): 0.322 | relative viability (NCI-H1792; first compound 0.01 µM): 0.826 | relative viability (NCI-H1792; first compound 0.03162 µM): 0.781 | relative viability (NCI-H1792; first compound 0.1 µM): 0.727 | relative viability (NCI-H1792; first compound 0.3162 µM): 0.751 | relative viability (NCI-H1792; first compound 1 µM): 0.9 | relative viability (NCI-H1666; first compound 0.01 µM): 1.12 | relative viability (NCI-H1666; first compound 0.03162 µM): 1.24 | relative viability (NCI-H1666; first compound 0.1 µM): 1.18 | relative viability (NCI-H1666; first compound 0.3162 µM): 1.02 | relative viability (NCI-H1666; first compound 1 µM): 0.75 | relative viability (A-427; first compound 0.01 µM): 1.07 | relative viability (A-427; first compound 0.03162 µM): 1.14 | relative viability (A-427; first compound 0.1 µM): 1.1 | relative viability (A-427; first compound 0.3162 µM): 1.1 | relative viability (A-427; first compound 1 µM): 0.864 | relative viability (COR-L23; first compound 0.01 µM): 0.938 | relative viability (COR-L23; first compound 0.03162 µM): 0.895 | relative viability (COR-L23; first compound 0.1 µM): 0.797 | relative viability (COR-L23; first compound 0.3162 µM): 0.621 | relative viability (COR-L23; first compound 1 µM): 0.162 | relative viability (LK-2; first compound 0.01 µM): 1.21 | relative viability (LK-2; first compound 0.03162 µM): 0.946 | relative viability (LK-2; first compound 0.1 µM): 0.976 | relative viability (LK-2; first compound 0.3162 µM): 0.838 | relative viability (LK-2; first compound 1 µM): 0.618 | relative viability (EKVX; first compound 0.01 µM): 0.846 | relative viability (EKVX; first compound 0.03162 µM): 0.845 | relative viability (EKVX; first compound 0.1 µM): 0.805 | relative viability (EKVX; first compound 0.3162 µM): 0.787 | relative viability (EKVX; first compound 1 µM): 0.468 | relative viability (BEN; first compound 0.01 µM): 1.21 | relative viability (BEN; first compound 0.03162 µM): 0.992 | relative viability (BEN; first compound 0.1 µM): 0.883 | relative viability (BEN; first compound 0.3162 µM): 1.06 | relative viability (BEN; first compound 1 µM): 0.845 | relative viability (NCI-H650; first compound 0.01 µM): 1.19 | relative viability (NCI-H650; first compound 0.03162 µM): 1.12 | relative viability (NCI-H650; first compound 0.1 µM): 1.19 | relative viability (NCI-H650; first compound 0.3162 µM): 1.27 | relative viability (NCI-H650; first compound 1 µM): 1.02 | relative viability (SK-MES-1; first compound 0.01 µM): 0.968 | relative viability (SK-MES-1; first compound 0.03162 µM): 0.946 | relative viability (SK-MES-1; first compound 0.1 µM): 1.02 | relative viability (SK-MES-1; first compound 0.3162 µM): 1.09 | relative viability (SK-MES-1; first compound 1 µM): 0.591 | relative viability (HCC-44; first compound 0.01 µM): 0.818 | relative viability (HCC-44; first compound 0.03162 µM): 0.751 | relative viability (HCC-44; first compound 0.1 µM): 0.831 | relative viability (HCC-44; first compound 0.3162 µM): 0.755 | relative viability (HCC-44; first compound 1 µM): 0.952 | relative viability (HCC-827; first compound 0.01 µM): 1.01 | relative viability (HCC-827; first compound 0.03162 µM): 1.02 | relative viability (HCC-827; first compound 0.1 µM): 1 | relative viability (HCC-827; first compound 0.3162 µM): 0.985 | relative viability (HCC-827; first compound 1 µM): 0.659 | relative viability (NCI-H23; first compound 0.01 µM): 0.859 | relative viability (NCI-H23; first compound 0.03162 µM): 0.721 | relative viability (NCI-H23; first compound 0.1 µM): 0.745 | relative viability (NCI-H23; first compound 0.3162 µM): 0.562 | relative viability (NCI-H23; first compound 1 µM): 0.418 | relative viability (201T; first compound 0.01 µM): 1.01 | relative viability (201T; first compound 0.03162 µM): 1.05 | relative viability (201T; first compound 0.1 µM): 1.02 | relative viability (201T; first compound 0.3162 µM): 1.08 | relative viability (201T; first compound 1 µM): 1.11 | relative viability (NCI-H596; first compound 0.01 µM): 0.549 | relative viability (NCI-H596; first compound 0.03162 µM): 0.514 | relative viability (NCI-H596; first compound 0.1 µM): 0.481 | relative viability (NCI-H596; first compound 0.3162 µM): 0.503 | relative viability (NCI-H596; first compound 1 µM): 0.421 | relative viability (COR-L 105; first compound 0.01 µM): 1.2 | relative viability (COR-L 105; first compound 0.03162 µM): 1.03 | relative viability (COR-L 105; first compound 0.1 µM): 0.92 | relative viability (COR-L 105; first compound 0.3162 µM): 0.847 | relative viability (COR-L 105; first compound 1 µM): 0.461 | relative viability (NCI-H1437; first compound 0.01 µM): 0.995 | relative viability (NCI-H1437; first compound 0.03162 µM): 0.962 | relative viability (NCI-H1437; first compound 0.1 µM): 1 | relative viability (NCI-H1437; first compound 0.3162 µM): 1 | relative viability (NCI-H1437; first compound 1 µM): 1 | relative viability (HARA; first compound 0.01 µM): 0.889 | relative viability (HARA; first compound 0.03162 µM): 0.887 | relative viability (HARA; first compound 0.1 µM): 0.825 | relative viability (HARA; first compound 0.3162 µM): 0.751 | relative viability (HARA; first compound 1 µM): 0.824 | relative viability (NCI-H838; first compound 0.01 µM): 1 | relative viability (NCI-H838; first compound 0.03162 µM): 1.01 | relative viability (NCI-H838; first compound 0.1 µM): 0.871 | relative viability (NCI-H838; first compound 0.3162 µM): 0.959 | relative viability (NCI-H838; first compound 1 µM): 0.616
